ChEMBL document CHEMBL1135340, “Efficient liquid-phase synthesis of 2'-hydroxychalcones” (Bioorg Med Chem Lett, 2002)

System: MCF7
Assay: Cytotoxic concentration against MCF-7 cells was determined
Assay type: functional, cell-based
Conditions: Homo sapiens

`O=C(/C=C/c1ccc(Br)cc1)c1ccccc1O` showed an IC50 of 12.3 µM.
